Data as given in ChEMBL document CHEMBL6115023, “Design and biochemical evaluation of 2-cyclopropyl-thioureidobenzamide (CP-TBA) derivatives as potent HBV capsid assembly modulators targeting a novel binding site” (Eur J Med Chem, 2025).
The source made the active and inactive calls. The rule behind the calls is not given here.

How the values were obtained:
[1] = Selectivity index, ratio of CC50 for human HepAD38 cells to IC50 for antiviral activity against HBV gene expressed in human HepAD38 cells assessed as inhibition of HBV DNA replication; type: toxicity, cell-based; conditions: read-out: Selectivity Index
[2] = Cytotoxicity against human HepAD38 cells measured after 72 hrs by CCK-8 assay; type: toxicity, cell-based
[3] = tested on: Hepatitis B virus; assay: Antiviral activity against HBV gene expressed in human HePAD38 cells assessed as inhibition of HBV DNA replication by quantitative PCR analysis; type: functional, organism-based
[4] = Cmax in Sprague-Dawley rat at 20 mg/kg, po measured upto 24 hrs by LC-MS/MS analysis; type: ADME, organism-based; conditions: in vivo
[5] = AUC (0 to t) in Sprague-Dawley rat at 2 mg/kg, iv measured upto 24 hrs by LC-MS/MS analysis; type: ADME, organism-based; conditions: in vivo
[6] = tested on: Hepatitis B virus; assay: Antiviral activity against HBV infected in human HLCZ01 cells assessed as inhibition of HBV replication by measuring HBsAg treated for 6 days by ELISA; type: functional, organism-based; conditions: time 6.0 day
[7] = Metabolic stability in human liver microsomes assessed as intrinsic clearance measured per mg of microsomal protein upto 60 mins by LC-MS/MS analysis; type: ADME, Microsome; conditions: read-out: CLH
[8] = Half life in Sprague-Dawley rat at 20 mg/kg, po measured upto 24 hrs by LC-MS/MS analysis; type: ADME, organism-based; conditions: in vivo
[9] = Stability in human plasma assessed as compound remaining measured after 30 mins by LC-MS/MS analysis; type: ADME, cell-free; conditions: read-out: Stability
[10] = Oral bioavailability in Sprague-Dawley rat at 2 mg/kg, iv measured upto 24 hrs by LC-MS/MS analysis; type: ADME, organism-based; conditions: in vivo
[11] = MRT (0 to infinity) in Sprague-Dawley rat at 2 mg/kg, iv measured upto 24 hrs by LC-MS/MS analysis; type: ADME, organism-based; conditions: in vivo
[12] = Half life in Sprague-Dawley rat at 2 mg/kg, iv measured upto 24 hrs by LC-MS/MS analysis; type: ADME, organism-based; conditions: in vivo
[13] = AUC (0 to infinitive) in Sprague-Dawley rat at 2 mg/kg, iv measured upto 24 hrs by LC-MS/MS analysis; type: ADME, organism-based; conditions: in vivo
[14] = Stability in human plasma assessed as half life by LC-MS/MS analysis; type: ADME, cell-free
[15] = AUC (0 to infinity) in Sprague-Dawley rat at 20 mg/kg, po measured upto 24 hrs by LC-MS/MS analysis; type: ADME, organism-based; conditions: in vivo
[16] = Stability in human plasma assessed as compound remaining measured after 120 mins by LC-MS/MS analysis; type: ADME, cell-free; conditions: read-out: Stability
[17] = Metabolic stability in human liver microsomes assessed as half life by LC-MS/MS analysis; type: ADME, Microsome
[18] = Clearance in Sprague-Dawley rat at 2 mg/kg, iv measured upto 24 hrs by LC-MS/MS analysis; type: ADME, organism-based; conditions: in vivo
[19] = Lipophilic-hydrophilic partition coefficient logP of compound; type: physicochemical; conditions: octanol/water
[20] = Cytotoxicity against human HLCZ01 cells assessed as cell viability measured after 72 hrs by CCK-8 assay; type: toxicity, cell-based
[21] = AUC (0 to t) in Sprague-Dawley rat at 20 mg/kg, po measured upto 24 hrs by LC-MS/MS analysis; type: ADME, organism-based; conditions: in vivo
[22] = tested on: Hepatitis B virus; assay: Antiviral activity against HBV infected in human HLCZ01 cells assessed as inhibition of HBV replication by measuring HBV DNA treated for 6 days by qPCR analysis; type: functional, organism-based; conditions: HLCZ01, 144 h
[23] = Tmax in Sprague-Dawley rat at 20 mg/kg, po measured upto 24 hrs by LC-MS/MS analysis; type: ADME, organism-based; conditions: in vivo
[24] = MRT (0 to infinity) in Sprague-Dawley rat at 20 mg/kg, po measured upto 24 hrs by LC-MS/MS analysis; type: ADME, organism-based; conditions: in vivo
[25] = tested on: Hepatitis B virus; assay: In vivo antiviral activity against HBV infected male C57BL/6J mouse by hydrodynamic injection (HDI) of pAAV-HBV1.2 assessed as decrease in HBV DNA in serum at 5 mg/kg/day, po measured after 20 days by qPCR analysis; type: functional, organism-based; conditions: time 20.0 day
[26] = Stability in human plasma assessed as compound remaining measured after 10 mins by LC-MS/MS analysis; type: ADME, cell-free; conditions: read-out: Stability
[27] = Metabolic stability in human liver microsomes assessed as intrinsic clearance (liver) upto 60 mins by LC-MS/MS analysis; type: ADME, Microsome; conditions: read-out: CLH
[28] = Metabolic stability in human liver microsomes assessed as compound remaining after 60 mins in presence of NADPH by LC-MS/MS analysis; type: ADME, Microsome; conditions: read-out: Stability
[29] = Stability in human plasma assessed as compound remaining measured immediately by LC-MS/MS analysis; type: ADME, cell-free; conditions: read-out: Stability
[30] = MRT (0 to t) in Sprague-Dawley rat at 20 mg/kg, po measured upto 24 hrs by LC-MS/MS analysis; type: ADME, organism-based; conditions: in vivo
[31] = Selectivity index, ratio of CC50 for human HLCZ01 cells to IC50 for antiviral activity against HBV infected in human HLCZ01 cells assessed as inhibition of HBV replication by measuring HBV DNA treated for 6 days by qPCR analysis; type: toxicity, cell-based; conditions: time 6 day, read-out: Selectivity Index
[32] = Stability in human plasma assessed as compound remaining measured after 60 mins by LC-MS/MS analysis; type: ADME, cell-free; conditions: read-out: Stability
[33] = Volume of distribution at steady state in Sprague-Dawley rat at 2 mg/kg, iv measured upto 24 hrs by LC-MS/MS analysis; type: ADME, organism-based; conditions: in vivo, read-out: Vdss
[34] = Metabolic stability in human liver microsomes assessed as compound remaining after 60 mins in absence of NADPH (NCF) by LC-MS/MS analysis; type: ADME, Microsome; conditions: read-out: Stability
[35] = MRT (0 to t) in Sprague-Dawley rat at 2 mg/kg, iv measured upto 24 hrs by LC-MS/MS analysis; type: ADME, organism-based; conditions: in vivo

SMILES: O=C(Nc1cc(F)c(F)c(F)c1)c1cc(NC(=O)C2CCCC2)c(F)cc1C1CC1
- selectivity ratio [1]: > 208
- CC50 at 72 h [2]: > 100 µM
- EC50 [3]: 0.48 µM

SMILES: COC(=O)/C=C/c1c(S(=O)(=O)N2CCOCC2)ccc(F)c1C(=O)Nc1cc(F)c(F)c(F)c1
- CC50 at 72 h [2]: > 100 µM
- EC50 [3]: > 4 µM

SMILES: O=C(Nc1cc(F)c(F)c(F)c1)c1cc(S(=O)(=O)NC2CCC(O)CC2)c(F)cc1-c1ccccc1 (configuration not stated)
- selectivity ratio [1]: < 12.4
- CC50 at 72 h [2]: 49.7 µM
- EC50 [3]: > 4 µM

SMILES: O=C(Nc1cc(F)c(F)c(F)c1)c1cc(NC(=O)C2CC2)c(F)cc1C1CC1
- selectivity ratio [1]: 59.6
- CC50 at 72 h [2]: 88.2 µM
- EC50 [3]: 1.48 µM

SMILES: CC(C)NC(=O)/C=C/c1c(S(=O)(=O)N2CCOCC2)ccc(F)c1C(=O)Nc1cc(F)c(F)c(F)c1
- selectivity ratio [1]: < 6.04
- CC50 at 72 h [2]: 24.2 µM
- EC50 [3]: > 4 µM

SMILES: O=C(Nc1cc(F)c(F)c(F)c1)c1cc(S(=O)(=O)NC2CCC(O)CC2)c(F)cc1-c1ccsc1 (configuration not stated)
- selectivity ratio [1]: < 20.6
- CC50 at 72 h [2]: 82.4 µM
- EC50 [3]: > 4 µM

SMILES: CC(NC(=S)Nc1cc(C(=O)Nc2cc(F)c(F)c(F)c2)c(C2CC2)cc1F)C(F)(F)F (configuration not stated)
- selectivity ratio [1]: 133
- CC50 at 72 h [2]: 3.86 µM
- EC50 [3]: 0.029 µM

SMILES: N#Cc1ccc(C(=O)Nc2cc(C(=O)Nc3cc(F)c(F)c(F)c3)c(C3CC3)cc2F)cc1
- selectivity ratio [1]: 10.7
- CC50 at 72 h [2]: 4.5 µM
- EC50 [3]: 0.42 µM

SMILES: O=C(Nc1cc(F)c(F)c(F)c1)c1cc(S(=O)(=O)NC2CCC(O)CC2)c(F)cc1-c1ccc2c(c1)OCO2 (configuration not stated)
- selectivity ratio [1]: < 20.6
- CC50 at 72 h [2]: 82.4 µM
- EC50 [3]: > 4 µM

SMILES: O=C(Nc1cc(F)c(F)c(F)c1)c1cc(NC(=S)NC2CCCC2)c(F)cc1C1CC1
- selectivity ratio [1]: 179
- CC50 at 72 h [2]: 4.66 µM
- EC50 [3]: 0.026 µM

SMILES: O=C(Nc1cc(C(=O)Nc2cc(F)c(F)c(F)c2)c(C2CC2)cc1F)c1cccs1
- selectivity ratio [1]: 41.8
- CC50 at 72 h [2]: 20.9 µM
- EC50 [3]: 0.5 µM

SMILES: CC(C)N(C)C(=S)Nc1cc(C(=O)Nc2cc(F)c(F)c(F)c2)c(C2CC2)cc1F
- selectivity ratio [1]: > 3030
- Cmax [4]: 748 ng/mL
- AUC(0-t) at 24 h [5]: 1180 ng·h/mL
- Activity [6]: Active
- microsomal CLint [7]: 113 µL/min/mg
- half-life [8]: 2.87 h
- remaining at 0.5 h [9]: 91.6%
- bioavailability [10]: 28.9%
- MRT inf [11]: 1.24 h
- half-life [12]: 1.62 h
- AUC(0-inf) [13]: 1200 ng·h/mL
- half-life [14]: > 4.82 h
- AUC(0-inf) [15]: 3450 ng·h/mL
- remaining at 2 h [16]: 82.3%
- half-life [17]: 0.205 h
- clearance [18]: 28.2 mL/min/kg
- logP [19]: > 5
- CC50 at 72 h [20]: 119 µM
- AUC(0-t) at 24 h [21]: 3440 ng·h/mL
- EC50 [22]: 0.012 µM
- Tmax [23]: 0.67 h
- MRT inf [24]: 4.42 h
- Activity [25]: Active
- remaining at 10 min [26]: 97.5%
- CC50 at 72 h [2]: > 100 µM
- CLint scaled [27]: 102 mL/min/kg
- EC50 [3]: 0.033 µM
- remaining at 1 h [28]: 3.2%
- remaining at 0 min [29]: 100%
- MRT last at 24 h [30]: 4.35 h
- selectivity ratio at 144 h [31]: 9920
- remaining at 1 h [32]: 87.6%
- Vd [33]: 2.1 L/kg
- remaining at 1 h [34]: 99%
- MRT last at 24 h [35]: 1.09 h
